The results in this text go back to patent US20040043980A1, “Stable compositions of oxapenem-3-carboxylic acids by co-lyophilisation with pharmaceutical carriers” (priority 2000, published 2004).

Molecules are shown by their SMILES.

Common to all, as to details: 42 days
Data set [1] in a line: Shelf stability: appearance of the lyophilized powder. It counts as physicochemical. The protocol:
(§1) Several samples in glass ampoules were kept without and over drying agents for 42 days in the dark at room temperature. The content of (5R,6R,1′R)-3-(4-amino-1,1-dimethylbutyl)-6-(1′-hydroxyethyl)-7-oxo-4-1-azabicyclo[3.2.0]hept-2-ene-2-carboxylic acid was determined by UV spectroscopy in water at λmax=262 nm (ε=5000) and by plate bioassay. The appearance of the lyophilized powder and the solubility behaviour in water were also recorded.

The next data set concerns Escherichia coli. The data set can be described thus: Shelf stability: content by plate bioassay. On the set-up: unit not given here. It counts as cell-based. The procedure: […] The content of (5R,6R,1′R)-3-(4-amino-1,1-dimethylbutyl)-6-(1′-hydroxyethyl)-7-oxo-4-1-azabicyclo[3.2.0]hept-2-ene-2-carboxylic acid was determined by UV spectroscopy in water at λmax=262 nm (ε=5000) and by plate bioassay. The appearance of the lyophilized powder and the solubility behaviour in water were also recorded.
The plate bioassays were carried out in sterile polystyrene dishes of 8.5 cm diameter with 10 ml of sterile Difco Nutrient Agar using Escherichia coli (inocculum ca. 10 000 cells). The inhibition diameters were compared with those obtained with 30, 25, 20, 15, 10 and 5 μg of pure title compound on a separate dish and the amount of active material calculated.

The nature of data set [2]: Shelf stability: content determined by UV spectroscopy in water at 262 nm. It counts as physicochemical. Also noted: unit not given here. The protocol: as §1
Where [3] appears, read: R.T., vacuum, drying agent P2O5.

Consider `C[C@@H](O)[C@H]1C(=O)N2C(C(=O)O)=C(C(C)(C)CCCN)O[C@H]12` [neat, (5R,6R,1′R)-3-(4-amino-1,1-dimethylbutyl)-6-(1′-hydroxyethyl)-7-oxo-4-oxa-1-azabicyclo[3.2.0]hept-2-ene-2-carboxylic acid], for which the appearance entry in data set [1] (R.T., drying agent SiO2) is “yellow”; in data set [1] (R.T., drying agent none), “yellow”; in data set [1] (setting [3]) it was “yellow”; in data set [1] (−80° C., drying agent none) it was “white”. The content by bioassay is 66 in the data set with Escherichia coli (R.T., drying agent SiO2); 40 in the data set with Escherichia coli (R.T., drying agent none); 83 with Escherichia coli (setting [3]); 100 in the data set with Escherichia coli (−80° C., drying agent none). The “content by UV method” value in data set [2] (R.T., drying agent SiO2) turned out to be 82; in data set [2] (R.T., drying agent none), 67; in data set [2] (setting [3]) it was 76; in data set [2] (−80° C., drying agent none), 100.
